One series concerns TA100. Description: AmesTest, strain TA100. On the procedure: (§1) 4.3 Sample processing and preparation: 4000 mg sample was weighted and distilled water was added into the sample to 20 ml, then the mixture was blended to obtain a 200 mg/ml of solution. 3, 1, 0.3 and 0.1 mL of this solution were taken, respectively and each was added with sterile distilled water to 10 ml to obtain a solution in the concentration of 60 mg/ml, 20 mg/ml, 6 mg/ml and 2 mg/ml, respectively.
(§2) 4.4 Test doses: 0.2 mg/dish, 0.6 mg/dish, 2 mg/dish, 6 mg/dish and 20 mg/dish
(§3) 4.7 Test strains: TA97, TA98, TA100 and TA102, with qualitied biological characters, provided by Biochemistry Dept., California University, CA, America. The concentration of the bacteria liquid used for the test was 1-2×10^9/ml.
A healthy adult SD rat with a body weight of about 150 g was selected. Polychlorinatedbiphenyl was dissolved into corn oil to obtain a solution of 200 mg/ml. The above solution was injected (i.p.), in a sterile operation, into the rat in a dose of 500 mg/kg. 5 days later, the animal was sacrificed via decapitation. The liver was taken out and weighted, then rinsed several times with 0.15 mol/L of fresh cooled solution of potassium chloride. The amount of the potassium chloride solution was 3 ml/g liver (wet weight). The beaker in which the rinsed liver put was removed into an ice bath, and the liver was cut into pieces with a pair of sterilized scissors. […]

The next series has as its system TA102. Description: AmesTest, strain TA102. On the procedure:
as §1, §2, §3
A healthy adult SD rat with a body weight of about 150 g was selected. Polychlorinatedbiphenyl was dissolved into corn oil to obtain a solution of 200 mg/ml. The above solution was injected (i.p.), in a sterile operation, into the rat in a dose of 500 mg/kg. 5 days later, the animal was sacrificed via decapitation. The liver was taken out and weighted, then rinsed several times with 0.15 mol/L of fresh cooled solution of potassium chloride. The amount of the potassium chloride solution was 3 ml/g liver (wet weight). The beaker in which the rinsed liver put was removed into an ice bath, and the liver was cut into pieces with a pair of sterilized scissors. The liver was homogenized with a tissue homogenizer (2000 r/min, 1 min), then the liver homogenate thus prepared was centrifuged in a high speed centrifuge (0-4° C., 9000 g, 10 min). The supernatant, S9 part, was packed into several sterile tubes and conserved in liquid nitrogen. The above steps need to be operated in a sterile and cooled local circumstance. The S9 thus prepared was further identified for its content of protein and bioactivity of indirect mutagen.
Standard plate incorporation on the basis of GB15193-94: Into the top agar (45° C., 2 ml), the bacterial liquid 0.1 ml, Sample 0.1 ml and S9 mixture 0.5 ml for activation were added sequently. The mixture was blended sufficiently and poured rapidly onto the underlayer medium. After the incubation of 48 hr. at 37° C., results were observed. each test was repeated once more.

In another series the test system is M cells. The series can be described thus: tissue culture experiments, growth of M cells / collagen fiber network. The format is cell-based. The settings on record: vs control group (P>0.05). An excerpt: The difference in comparison with the control group is statistically significant ([…]).
Series [1] concerns philo-pleochromatic akaryocytes in animal marrow. Description: Micronucleus Test. The class given is in vivo, mice. To be noted: positive control 40 mg/kg; for Micronucleated Cells No.: 5000 cells tested. On the procedure: 2.2 Preparation of sample: Sample 5000, 2500 or 1250 mg was weighted and grinded. Distilled water was added into the grinded sample to 20 ml, and the mixture was blended sufficiently to form a test sample.
2.3 Animal subject: Kunming species of mice, 25-30 g, provided by experimental animal department, Fudan University. Certificate No.: 02-22-1.
2.5.1 Animals were divided randomly into 5 groups, 10 in each group with half of female and half of male. In the five groups, there were three groups for three doses of test sample, one negative control group, distilled water, and one positive control group, cyclophosphaide.
2.5.2. Animals were weighted and administrated with the test sample or control substances in different concentrations in a volume of 0.4 ml/20 g via an intragastric catheter, and the administration is repeated once more in 30 hr.
2.5.3 Animals were sacrificed via cervical bertebra dislocation 6 hr. after the second intragastric administration. The marrow was taken out of the femoral bone and blended uniformly with calf serum. Then, the film preparation, the fixation, and Giemasa stain were undertaken conventionally.
2.5.4 Test under microscope: Numbers of micronuclei were counted in over one thousand of philo-pleochromatic akaryocytes. Incidence rates of micronuclei were calculated and analyzed statistically.

The subject of a further series is spermatozoa. The series can be described thus: Teratospermia Test. The format is in vivo, mice. The settings on record: positive control 40 mg/kg. On the procedure: 3.2 Preparation of sample: Sample 5000, 2500 or 1250 mg was weighted and grinded. Distilled water was added into the grinded sample to 20 ml, and the mixture was blended sufficiently to obtain a test sample.
3.3 Animal subject: Male mice, depuratory grade, 25-30 g, provided by experimental animal department, Fudan University. Certificate No.: 02-22-1.
3.5.1 Animals were divided randomly into 5 groups, 5 in each group. It the five groups, there were three groups for three doses of test sample, one negative control group, distilled water, and one positive control group, cyclophosphaide.
3.5.2. Animals were weighted and administrated with the test sample or control substances in different concentrations in a volume of 0.4 ml/20 g via an intragastric catheter, once a day for 5 days.
3.5.3 Animals were sacrificed via cervical bertebra dislocation 35 days after the first intragastric administration. The ambo-epididymises were taken off and put into normal saline. After being cut into pieces, they were filtered through a four layer gauze. The filter was smeared, fixed and dyed with 2% eosin.
3.5.4 Test under microscope: Amounts of teratosperm in 1000 spernatozoas were counted per mouse and rates of teratospermia were calculated statistically.

[2] abbreviates: Salmonella typhimurium, 48 h, 1 μl/dish.

Counter-ions that a name gives are not always drawn.

Here are results for 4 compounds from patent publication US20090301508A1, “Cosmetic Composition and Preparation Method and Use Thereof” (priority 2006, published 2009).

On to `COS(C)(=O)=O` [Methyl mesylate], for which the Re-established colonies in the series with TA100 (setting [2]) amounted to 1641 ± 80 colonies/sish; in the series with TA100 (first test, TA100 −S9, positive control 1 μl/dish) it was 1463 ± 84 colonies/sish; in the series on TA102 (setting [2]), 2520 ± 112 colonies/sish; with TA102 (first test, TA102 −S9, positive control 1 μl/dish), 2784 ± 289 colonies/sish.

Consider `C[C@@H]1O[C@@H](O[C@@H]2[C@@H](O)[C@H](OCCc3ccc(O)c(O)c3)O[C@H](CO)[C@H]2OC(=O)/C=C/c2ccc(O)c(O)c2)[C@H](O)[C@H](O)[C@H]1O` [acteoside, Acteoside], for which the “promotion on the growth of M cells” value with M cells is recorded as “obvious promotion”.

Regarding `O=P1(N(CCCl)CCCl)NCCCO1` (stereo not shown) [Cyclophosphaide], in series [1] (F), the “Rate of Micronuclei (‰)” value is 25.8 ‰ and the “Micronucleated Cells No.” value came to 129. In series [1] (M), the “Rate of Micronuclei (‰)” value is 26.4 ‰ and the “Micronucleated Cells No.” value came out at 132. Moreover, in the series with spermatozoa, the “Aberration rate (‰)” value is reported as 58.4 ‰. Also, in the series with spermatozoa (5000 spernatozoa tested), the “Type of aberration (n): Banana sharp” value is reported as 32, the “Type of aberration (n): Double head” value is 4, the “Type of aberration (n): Double tail” value is on record as 6 and the “Type of aberration (n): Fat head” value came out at 45. Further, in the series with spermatozoa (5000 spernatozoa tested), the “Type of aberration (n): Fold tail” value was 2, the “Type of aberration (n): No crook” value is on record as 28 and the “Type of aberration (n): amorphism” value stood at 175.

As to `O=C1c2cccc(O)c2C(=O)c2c(O)cccc21` [1,8-dioxy anthraquinone], the Re-established colonies with TA102 (first test, TA102 +S9, positive control 50 μl/dish) was 885 ± 56 colonies/sish; in the series with TA102 (second test, TA102 +S9, positive control 50 μl/dish) it was 975 ± 86 colonies/sish.
